In PubChem BioAssay (NCI):
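48-hour exposure; five concentrations; linearly interpolated endpoints. The concentration for 50% growth inhibition is given as GI50. TGI is the concentration that stops growth completely.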

Legend:
Experiment in all cases: inhibition of tumour cell growth, NCI panel, 48 h
[1] = test system: HOP-62 NSCLC
[2] = test system: MCF7 breast
[3] = test system: MOLT-4 leukemia
[4] = test system: NCI-H23 lung
[5] = test system: NCI-H522 lung
[6] = test system: OVCAR-8 ovarian
[7] = test system: SF-539 CNS
[8] = test system: SK-MEL-5 melanoma
[9] = test system: CCRF-CEM leukemia
[10] = test system: DU-145 prostate

Compound: CCS(=O)(=O)Nc1ccc(Nc2c3ccccc3nc3ccccc23)c(OC)c1
- TGI [1]: 1.21 µM
- TGI [2]: 6.15 µM
- TGI [3]: 10.6 µM
- TGI [4]: 3.79 µM
- TGI [5]: 16.1 µM
- TGI [6]: 7.71 µM
- TGI [7]: 4.38 µM
- TGI [8]: 12.9 µM

Compound: N=c1c2c(C(N)=O)cn(C3OC(CO)C(O)C3O)c2ncn1O (centres undefined)
- TGI [9]: 1.46 µM
- TGI [10]: 1.36 µM
- TGI [1]: 0.873 µM
- TGI [3]: 0.491 µM
- TGI [4]: 0.358 µM
- TGI [5]: > 20.4 µM
- TGI [6]: 0.607 µM
- TGI [7]: 2.02 µM
- TGI [8]: 0.174 µM

Compound: Cc1cccc2nc3c(C(=O)NCCN(C)C)cccc3cc12
- TGI [9]: 5.41 µM
- TGI [1]: 4.88 µM
- TGI [2]: 9.44 µM
- TGI [4]: 5.02 µM
- TGI [6]: 6.58 µM
- TGI [7]: 4.84 µM
- TGI [8]: 3.06 µM

Compound: CCSCCC(N)C(=O)O (centres undefined)
- TGI [10]: > 100 µM
- TGI [1]: > 100 µM
- TGI [2]: > 100 µM
- TGI [3]: > 100 µM
- TGI [4]: > 100 µM
- TGI [5]: > 100 µM
- TGI [6]: > 100 µM
- TGI [7]: > 100 µM
- TGI [8]: > 100 µM

Compound: Cc1nc(N)nc(N)c1-c1ccc(Cl)c(Cl)c1
- TGI [9]: > 100 µM
- TGI [10]: > 100 µM
- TGI [1]: > 100 µM
- TGI [2]: > 100 µM
- TGI [3]: > 100 µM
- TGI [4]: > 81 µM
- TGI [5]: 34.8 µM
- TGI [6]: > 100 µM
- TGI [7]: > 100 µM
- TGI [8]: > 44.7 µM

Compound: COC(=O)C1=CC2CCCC1(O)C(C(C)=O)C2 (centres undefined)
- TGI [9]: > 68.3 µM
- TGI [10]: > 100 µM
- TGI [1]: > 100 µM
- TGI [2]: > 100 µM
- TGI [3]: 43.8 µM
- TGI [4]: > 100 µM
- TGI [5]: 31.7 µM
- TGI [6]: > 79.5 µM
- TGI [7]: 26.6 µM
- TGI [8]: > 100 µM

Compound: CCOC(=O)C1(C(=O)OCC)Nc2cccnc2N(C)N1
- TGI [9]: 44.6 µM
- TGI [10]: 42.5 µM
- TGI [1]: > 100 µM
- TGI [2]: 34.8 µM
- TGI [3]: 55.3 µM
- TGI [4]: 42.1 µM
- TGI [6]: 40 µM
- TGI [7]: 30.7 µM
- TGI [8]: 34.2 µM

Compound: O=S(=O)(O)c1ccc2cccc(N=Nc3c(O)ccc4ccccc34)c2c1
- TGI [9]: > 100 µM
- TGI [10]: > 100 µM
- TGI [1]: > 100 µM
- TGI [2]: > 100 µM
- TGI [3]: > 100 µM
- TGI [4]: > 100 µM
- TGI [5]: > 100 µM
- TGI [6]: > 100 µM
- TGI [7]: > 100 µM
- TGI [8]: > 100 µM

Compound: COc1ccc(/C(=C2/O[C@@H]([C@H]3COC(C)(C)O3)[C@H]3OC(C)(C)O[C@@H]23)c2cc(OC)c(OC)c(OC)c2)cc1O
- GI50 [9]: 5.45 µM
- TGI [9]: > 100 µM
- GI50 [10]: 3.93 µM
- TGI [10]: > 100 µM
- GI50 [1]: 10.9 µM
- TGI [1]: 34.7 µM
- GI50 [2]: 12.3 µM
- TGI [2]: > 100 µM
- GI50 [3]: 24.2 µM
- TGI [3]: > 100 µM
- GI50 [4]: 21.8 µM
- TGI [4]: 74.9 µM
- GI50 [5]: 2950 nM
- TGI [5]: 7.54 µM
- GI50 [6]: 8.56 µM
- TGI [6]: > 100 µM
- GI50 [7]: 3.15 µM
- TGI [7]: 8.75 µM
- GI50 [8]: 4120 nM
- TGI [8]: 15 µM

Compound: CC1CNc2ccccc2N=C1NN (centres undefined)
- TGI [9]: > 100 µM
- TGI [10]: > 100 µM
- TGI [1]: > 100 µM
- TGI [2]: > 100 µM
- TGI [4]: > 100 µM
- TGI [5]: > 100 µM
- TGI [6]: > 100 µM
- TGI [7]: > 100 µM
- TGI [8]: > 100 µM

Compound: CC1SC(c2ccccc2)N(CCc2cccs2)C1=O (centres undefined)
- GI50 [9]: 3.26 µM
- TGI [9]: 35.2 µM
- GI50 [10]: 7.08 µM
- TGI [10]: 19.9 µM
- GI50 [1]: 11 µM
- TGI [1]: 25.9 µM
- GI50 [2]: 3.36 µM
- TGI [2]: 15.2 µM
- GI50 [3]: 2.98 µM
- TGI [3]: 12.4 µM
- GI50 [4]: 3.23 µM
- TGI [4]: 15.1 µM
- GI50 [5]: 1890 nM
- TGI [5]: 8.76 µM
- GI50 [6]: 4.72 µM
- TGI [6]: 31.2 µM
- GI50 [7]: 5.14 µM
- TGI [7]: 19.2 µM
- GI50 [8]: 1670 nM
- TGI [8]: 3.15 µM

Compound: COc1ccc(/C=C2\C(=O)N(C3OC(COC(C)=O)C(OC(C)=O)C(OC(C)=O)C3OC(C)=O)c3ccccc3N=C2N)cc1 (centres undefined)
- TGI [9]: > 100 µM
- TGI [10]: 87.6 µM
- TGI [1]: > 100 µM
- TGI [2]: > 100 µM
- TGI [3]: 39.7 µM
- TGI [4]: 59.1 µM
- TGI [6]: 45.6 µM
- TGI [7]: 21.4 µM
- TGI [8]: 23.4 µM

Compound: CCOC(=O)c1nc2ccc(Cl)cc2c2c1Cc1ccccc1-2
- TGI [1]: > 100 µM
- TGI [3]: > 100 µM
- TGI [4]: > 100 µM
- TGI [5]: > 100 µM
- TGI [6]: > 100 µM
- TGI [7]: > 100 µM
- TGI [8]: > 100 µM

Compound: O=C(N/N=C(/c1ccccc1)C(F)(F)F)c1ccncc1
- TGI [9]: > 100 µM
- TGI [10]: > 100 µM
- TGI [1]: > 100 µM
- TGI [2]: > 100 µM
- TGI [3]: > 100 µM
- TGI [4]: > 100 µM
- TGI [5]: > 100 µM
- TGI [6]: > 100 µM
- TGI [8]: > 100 µM

Compound: CN1CC[C@@]2(c3cccc(O)c3)CC(=O)/C(=C/c3ccccc3)[C@H]1C2
- TGI [9]: > 27.7 µM
- TGI [10]: 29.3 µM
- TGI [1]: 58.7 µM
- TGI [2]: 10.3 µM
- TGI [3]: 6.21 µM
- TGI [4]: 46.4 µM
- TGI [5]: 20 µM
- TGI [6]: > 48 µM
- TGI [7]: 35.3 µM
- TGI [8]: > 54.8 µM

Compound: CCN(CC)CC(C)Nc1ccc([N+](=O)[O-])c2sc3ccccc3c(=O)c12 (centres undefined)
- GI50 [9]: 2.44 µM
- TGI [9]: 10.5 µM
- GI50 [10]: 1.49 µM
- TGI [10]: 9.79 µM
- GI50 [1]: 2.28 µM
- TGI [1]: 12.3 µM
- GI50 [2]: 0.452 µM
- TGI [2]: 2.36 µM
- GI50 [4]: 2.42 µM
- TGI [4]: 16.1 µM
- GI50 [5]: 1450 nM
- TGI [5]: 3.91 µM
- GI50 [6]: 2.58 µM
- TGI [6]: > 100 µM
- GI50 [7]: 2 µM
- TGI [7]: 7.56 µM
- GI50 [8]: 1080 nM
- TGI [8]: 2.26 µM

Compound: COc1ccc2nc(N/N=C/C(C)=N/Nc3cc(C)c4cc(OC)ccc4n3)cc(C)c2c1
- TGI [9]: 5.45 µM
- TGI [10]: 34.8 µM
- TGI [1]: 50.5 µM
- TGI [2]: 29.8 µM
- TGI [3]: 42.1 µM
- TGI [4]: 48.9 µM
- TGI [5]: 40.3 µM
- TGI [6]: 39.5 µM
- TGI [7]: 34.7 µM
- TGI [8]: 72.8 µM
